Measured values: US20260014278A1, “HYBRID PEPTIDE DENDRIMER SYSTEMS AND EXTRAHEPATIC DELIVERY” (NUNTIUS THERAPEUTICS LIMITED, priority 2022, published 2026)

Assays:
[1] = Dynamic light scattering: hydrodynamic size and polydispersity index (PDI) of nanoparticles; assay type: physicochemical
Procedure, shortened: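 Hydrodynamic size measured by DLS (Stokes-Einstein), PDI from cumulants fit per ISO 13321/22412. Samples diluted 16× in 25 mM HEPES, water as dispersant, 25° C; PDI measured on dendrimer:nucleic acid 8:1 nanoparticles.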

[2] = Zeta potential of nanoparticles (electrophoretic light scattering); assay type: physicochemical
From the text: Zeta potential is a measurement of the magnitude of the electrostatic or charge repulsion/attraction between particles. This can be determined by analysing particle mobility and charge (Zeta potential) using the Electrophoretic Light Scattering (ELS) technique.
Zeta potential is a measurement of the magnitude of the electrostatic or charge repulsion/attraction between particles. This can be determined by analysing particle mobility and charge (Zeta potential) using the Electrophoretic Light Scattering (ELS) technique. […] Parameters: reference material: polystyrene latex, dispersant: water, 25° C. The measurements of the zeta potential were carried out using the Zetasizer Advance Series—Pro (Malvern Panalytical Ltd, Malvern, UK) according to the manufacturer's instructions.

[3] = system: mouse muscle cells (C2c12 cells); test: eGFP expression in undifferentiated C2c12 cells, coat with or without muscle targeting domain; assay type: cell-based; conditions: GSCG1,2-RHL N:P=0.6:1, DOTMA/DOPE w/w 10:1, same mole equivalent of coat, 24 hours; FIG. 26
From the text: Nanocarrier comprising GSCG1,2-RHL (N:P=0.6:1 to mRNA) with DOTMA/DOPE (w/w=10:1 to mRNA) and mRNA was firstly prepared as described. The nanoparticles were then coated with a dendrimer with a muscle targeting domain, the muscle-G1-EEEE (Ac-EEEE)2[…]-(Acp)-NH2), at different mRNA:coating mole ratios, between 0.5:1 to 5:1, preferably around 2.74:1. As a control, the nanoparticles were coated with a dendrimer without a muscle targeting domain, the G1-EEEE, at different mRNA:coating mole ratios, between 0.5:1 to 5:1, preferably around 2.74:1.
In a first experiment, mouse muscle cells (C2c12 cells) were transfected with formulations comprising mRNA expressing eGFP. The formulations used were comprising GSCG1,2-RHL (N:P=0.6:1 to mRNA) with DOTMA/DOPE (w/w=10:1 to mRNA) and mRNA, and coated with either the same equivalent of mole of dendritic PGA with or without the muscle targeting domain. The cells were harvested 24 hours post-transfection. Control: Cells were not transfected with mRNA. The dendrimer with the muscle targeting domain was (Ac-EEEE)2[…]-(Acp)-NH2 (named “muscle-G1-EEEE”. ASSLNIA, SEQ ID NO:1, is the muscle targeting motif). The dendrimer without the muscle targeting domain was (Ac-EEEE)2[…]-NH2 (“[…]1-EEEE”).

[4] = system: differentiated mouse muscle cells (C2c12 cells); test: eGFP expression in differentiated C2c12 cells, coat with or without muscle targeting domain; assay type: cell-based
Method: In a second experiment, differentiated mouse muscle cells (C2c12 cells) were transfected with formulations comprising mRNA expressing eGFP. The muscle cells were differentiated as follows: C2c12 cells were seeded and allowed to grow to confluence in a growth medium. Once the cells were confluent, the medium on the cells was replaced with a differentiation medium for 2 days to allow the cells to develop myotube characteristics. The differentiation medium was replaced with the growth medium 30 mins before transfection. The cells were transfected for 24 hours with nanocarriers indicated in FIG. 27 and harvested to assay the eGFP reporter gene expression using a plate reader. The mRNA used expressed eGFP. The growth medium contained high glucose DMEM (Gibco), 10% FBS (Gibco), 2 mM L-glutamine (Gibco). The differentiated medium contained high glucose DMEM (Gibco), 2% horse serum (Gibco), 2 mM L-glutamine (Gibco), 1 uM insulin.
As in the first experiment, the formulations used were comprising GSCG1,2-RHL (N:P=0.6:1 to mRNA) with DOTMA/DOPE (w/w=10:1 to mRNA) and mRNA, and coated with either the same equivalent of mole of dendritic PGA with or without the muscle targeting domain. The cells were harvested 24 hours post-transfection. Control: Cells were not transfected with mRNA or transfected with mRNA alone. The dendrimer with the muscle targeting domain was muscle-G1-EEEE. […]

[5] = system: Mouse muscle cells (C2c12); test: eGFP expression (RFU/mg) in C2c12 muscle cells, muscle-targeting dendrimers; assay type: cell-based; conditions: N:P=0.6:1, DOTMA:DOPE w/w 10:1, 24 hours post-transfection; FIG. 9
Method: Cell lines, transfection reagents and mRNA. C2c12 cells were maintained in DMEM medium with 10% (v/v) FCS and 1% (v/v) L-glutamine in a humidified atmosphere in 5% CO2, and 37° C. The Alexa Fluor 488 tagged mRNA, expressing an eGFP, was purchased from RiboPro. The mRNA either expressing an eGFP or firefly luciferase was purchased from Trilink. DOTMA:DOPE, 1:1 (w/w) were obtained from Invitrogen or Encapsula NanoSciences LLC.
Transfection procedure. 24 hours before transfection, C2c12 cells were seeded in 96well plates in order to reach 70% confluence. mRNA transfection complexes were formed by mixing mRNA with the dendrimers in 25 mM HEPES buffer, then with DOTMA:DOPE in 25 mM HEPES buffer at 25° C. The transfection complexes were then overlaid to the cells in full growth medium. The cells were harvested 4 hours after transfection for FACS analysis or 24 hours post transfection for reporter genes assays.
Two variants (NTX2 and NTX3) of the peptide dendrimer GSCG1,2-RL, 3-LR ((LR)8(KRL)4(KRL)2KGSC-NH2) were made which include the ASSLNIA (SEQ ID NO:1) muscle targeting peptide. Transfection of muscle cells with GSCG1,2-RL, 3-LR, NTX2 ((LR)8(KRL)4(KRL)2[…](Acp)-NH2) or NTX3 ((LR)8(KRL)4(KRL)2[…](Acp)-NH2) was performed using eGFP mRNA and transfection efficiency was assayed using either flow cytometry or the transgene expression assay. […]
Transgene expression assay: The cells were washed twice with PBS and incubated with 50 ul of 1× M-PER lysis buffer (Thermo 11874111). […] 40 ul of lysate from each well was transferred to all black 96 well plates for quantification of eGFP relative fluorescence unit (RFU), absorbance at 535 nm, using Molecular devices SpectraMax iD5.
Protein content determination: The protein content of each cell lysate was determined by mixing the lysate (25 μL) with Pierce™ BCA Protein Assay Kit (200 ul, Thermo Scientific). After 30 minutes of 37° C. incubation in at dark, absorbance was measured at 562 nm with Molecular devices SpectraMax iD5 and converted to protein concentration using a BSA standard curve. […]

[6] = system: C2c12 muscle cells; test: Uptake of Alexa488 labelled mRNA in C2c12 cells, flow cytometry; assay type: cell-based, mouse; conditions: NTX3 N:P=0.6:1, DOTMA:DOPE w/w 10:1, 4 hours; FIG. 18
Method: FIG. 18. […] Labelled mRNA delivery to cells. Mouse muscle cells (C2c12) took up mRNA labelled with an Alexa488 fluorophore following transfection. The cells were transfected with labelled mRNA alone, labelled mRNA with NTX3 (N:P=0.6:1) and DOTMA:DOPE for 4 hours, and the uptake of the mRNA was measured by flow cytometry. NTX3 is GSCG1,2-RL, 3-LR linked with a muscle cell targeting peptide with 6 histidines. DOTMA:DOPE was used at w/w=10:1 to mRNA.
C2c12 cells were maintained in DMEM medium with 10% (v/v) FCS and 1% (v/v) L-glutamine in a humidified atmosphere in 5% CO2 and 37° C. The Alexa Fluor 488 tagged mRNA, expressing an eGFP, was purchased from RiboPro. 24 hours before transfection, C2c12 cells were seeded in 96 well plates in order to reach 70% confluence. mRNA transfection complexes were formed by mixing mRNA with the dendrimers in 25 mM HEPES buffer, then with DOTMA:DOPE (1:1 w/w) in 25 mM HEPES buffer at 25° C. The transfection complexes (“NTX3”) were then overlaid to the cells in full growth medium. The cells were harvested for FACS analysis 4 hours after transfection. Cells medium and PBS used to wash each well, was collected from each treatment before the addition of […] EDTA in PBS. After 10 minutes of incubation at 37° C., the cells were gently detached from the plates and pelleted down at 400 g for 8 minutes, 4° C. […] Collected data were analysed using FlowJo 10.0 software.

[7] = GSCG1,2-RHL N:P 0.6:1, DOTMA/DOPE nanoparticles coated at 2.06:1 (dendrimer to mRNA)
[8] = GSCG1,2-RHL N:P 0.6:1, DOTMA/DOPE nanoparticles coated at 2.72:1 (dendrimer to mRNA)

Substance	PDI [1, 7]	size [1, 7] [nm]	PDI [1, 8]	size [1, 8] [nm]	zeta potential [2, 7] [mV]	zeta potential [2, 8] [mV]	eGFP expression versus coat without muscle targeting domain [3]	eGFP expression versus coat without muscle targeting domain ([4]; GSCG1,2-RHL N:P=0.6:1, DOTMA/DOPE w/w 10:1, same mole equivalent of coat, 24 hours, FIG. 27)	mRNA transfection versus nanoparticles coated with dendrimer without the targeting domain ([4]; coat mole ratio 2.72:1 and 2.06:1 (dendrimer to mRNA))	increase in eGFP expression compared to GSCG1,2-RL, 3-LR [5]	cells successfully transfected (uptake of Alexa488 labelled mRNA) [6]
(Ac-EEEE)2KGSCGAASSLNIA-(Acp)-NH2) [muscle-G1-EEEE]	0.15	176	0.14	172	~38.7	~44.0	dramatic increase in eGFP expression	dramatic increase in eGFP expression	improved mRNA transfection	–	–
(LR)8(KRL)4(KRL)2KGSCHHHHHHGAASSLNIA(Acp)-NH2 [NTX3]	–	–	–	–	–	–	–	–	–	three-fold	approximately 100%
